Results reported in ChEMBL document CHEMBL3525962, “Novel bioactivation mechanism of reactive metabolite formation from phenyl methyl-isoxazoles” (Drug Metab Dispos, 2012).

System: Liver microsome
Assay: Drug metabolism in human liver microsomes assessed as oxidative metabolite formation at 10 uM by LC-MS analysis in presence of NADPH
Type: ADME

Cc1onc(-c2ccccc2)c1NC(=O)NCc1ccc(Cl)cc1Cl
Drug metabolism: metabolite_detected
